Target: STING (Homo sapiens, UniProt Q86WV6, G230A/H232R/R293Q/R71H)
Experiment: STING reporter assay in THP1-Dual KO-IFNAR2 cells (2′3′cGAMP stimulation, luciferase reporter)
Format: cell-based
Settings: 15 μM 2′3′cGAMP stimulation, 24 h, read-out: Pharmaron, THP1_IFNAR2 STING 24 h Luci Normalized: GeoMean EC50
Summary of the method: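 EC50 from secreted luciferase (QUANTI-Luc Plus luminescence of supernatant) after 24 h at 37 °C, 5% CO2. Cells: THP1-Dual KO-IFNAR2, treated with compound (0.0017-100 μM final) plus lipofected 2′3′cGAMP at 15 μM final.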

Chain of STING (Q86WV6 whole entry R71H/G230A/H232R/R293Q): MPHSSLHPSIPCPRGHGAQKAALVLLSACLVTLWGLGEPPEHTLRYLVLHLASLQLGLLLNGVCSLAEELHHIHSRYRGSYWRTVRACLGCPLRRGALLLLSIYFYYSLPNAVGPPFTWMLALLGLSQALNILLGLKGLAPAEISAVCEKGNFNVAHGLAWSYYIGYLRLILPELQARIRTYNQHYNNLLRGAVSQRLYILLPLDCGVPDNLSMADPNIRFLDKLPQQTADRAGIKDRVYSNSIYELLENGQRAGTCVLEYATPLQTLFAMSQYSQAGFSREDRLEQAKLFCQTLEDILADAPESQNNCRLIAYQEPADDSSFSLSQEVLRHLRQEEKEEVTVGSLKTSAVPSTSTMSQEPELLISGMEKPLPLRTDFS

Row | Molecule | EC50 [nM]
1 | O=C(Nc1c[nH]c2ccc(OCc3ccc(C(F)(F)F)cc3)cc12)C1CC(O)C1 (stereo not drawn) [Compound 329, 3-hydroxy-N-(5-((4-(trifluoromethyl)benzyl)oxy)-1H-indol-3-yl)cyclobutane-1-carboxamide] | 200 to 1000
2 | O=C(Nc1c[nH]c2ccc(O[C@H]3C[C@@H](c4ccc(C(F)(F)F)cc4)C3)cc12)C1CC(O)C1 (stereo partly drawn) [Compound 338, 3-hydroxy-N-(5-(cis-3-(4-(trifluoromethyl)phenyl)cyclobutoxy)-1H-indol-3-yl)cyclobutane-1-carboxamide] | 200 to 1000
3 | O=C(Nc1c[nH]c2ccc(O[C@H]3C[C@@H](c4ccc(C(F)(F)F)cc4)C3)cc12)C1CC(Cl)C1 (stereo partly drawn) [Compound 336, 3-chloro-N-(5-(cis-3-(4-(trifluoromethyl)phenyl)cyclobutoxy)-1H-indol-3-yl)cyclobutane-1-carboxamide] | 200 to 1000
4 | COCCOCC(=O)Nc1c[nH]c2ccc(O[C@H]3C[C@@H](c4ccc(C(F)(F)F)cc4)C3)cc12 [Compound 405, 2-(2-methoxyethoxy)-N-(5-(cis-3-(4-(trifluoromethyl)phenyl)cyclobutoxy)-1H-indol-3-yl)acetamide] | 200 to 1000
5 | CC(=O)Nc1c[nH]c2ccc(CCOc3ccc4c(c3)CCCC4)cc12 [Compound 490, N-(5-[2-(5,6,7,8-tetrahydronaphthalen-2-yloxy)ethyl]-1H-indol-3-yl}acetamide] | 40 to 200
6 | O=C(Nc1c[nH]c2ccc(OCCc3ccc(C(F)(F)F)cc3)cc12)C1COC1 [Compound 163, N-(5-(4-(trifluoromethyl)phenethoxy)-1H-indol-3-yl)oxetane-3-carboxamide] | 40 to 200
7 | O=C(Nc1c[nH]c2ccc(/C=C/Cc3ccc(C(F)(F)F)cc3)cc12)C1CCC1 [Compound 135, (E)-N-(5-(3-(4-(trifluoromethyl)phenyl)prop-1-en-1-yl)-1H-indol-3-yl)cyclobutanecarboxamide] | 200 to 1000
8 | CC(=O)Nc1c[nH]c2ccc(CCOC(C)(C)C3CCN(CC(F)(F)F)C3)cc12 (stereo not drawn) [Compound 499, N-(5-(2-((2-(1-(2,2,2-trifluoroethyl)pyrrolidin-3-yl)propan-2-yl)oxy)ethyl)-1H-indol-3-yl)acetamide] | 5000 to 100000
9 | CC1(F)CC(C(=O)Nc2c[nH]c3ccc(O[C@H]4C[C@H](c5ccc(C(F)(F)F)cc5)C4)cc23)C1 (stereo partly drawn) [Compound 469, 3-fluoro-3-methyl-N-{5-[(1R,3R)-3-[4-(trifluoromethyl)phenyl]cyclobutoxy]-1H-indol-3-yl}cyclobutane-1-carboxamide] | 200 to 1000
10 | CC(=O)Nc1c[nH]c2ccc(Cc3ccc(C(F)(F)F)cc3)cc12 [Compound 128, N-(5-(4-(trifluoromethyl)benzyl)-1H-indol-3-yl)acetamide] | 200 to 1000
11 | CC(C)(C)CC(=O)Nc1c[nH]c2ccc(OCc3ccc(C(F)(F)F)cc3)cc12 [Compound 314, 3,3-dimethyl-N-(5-((4-(trifluoromethyl)benzyl)oxy)-1H-indol-3-yl)butanamide] | 200 to 1000
12 | N#CC1CCC1C(=O)Nc1c[nH]c2ccc(O[C@H]3C[C@H](c4ccc(C(F)(F)F)cc4)C3)cc12 (stereo partly drawn) [Compound 467, 2-cyano-N-{5-[(1R,3R)-3-[4-(trifluoromethyl)phenyl]cyclobutoxy]-1H-indol-3-yl}cyclobutane-1-carboxamide] | 200 to 1000
13 | CC1(C)CC(C(=O)Nc2c[nH]c3ccc(CCOc4ccc(C(F)(F)F)cc4)cc23)C1 [Compound 348, 3,3-dimethyl-N-(5-(2-(4-(trifluoromethyl)phenoxy)ethyl)-1H-indol-3-yl)cyclobutane-1-carboxamide] | 200 to 1000
14 | CC1(C(=O)Nc2c[nH]c3ccc(OCCc4ccc(C(F)(F)F)cc4)cc23)CCCO1 (stereo not drawn) [Compound 191, 2-methyl-N-(5-(4-(trifluoromethyl)phenethoxy)-1H-indol-3-yl)tetrahydrofuran-2-carboxamide] | 200 to 1000
15 | CC(Cc1ccc(C(F)(F)F)cc1)Cc1ccc2[nH]cc(NC(=O)C3CCC3)c2c1 (stereo not drawn) [Compound 137, N-(5-(2-methyl-3-(4-(trifluoromethyl)phenyl)propyl)-1H-indol-3-yl)cyclobutanecarboxamide] | 1000 to 5000

Results, then the molecule that gave them:

Row | EC50 [nM] | Molecule
16 | 40 to 200 | O=C(Nc1c[nH]c2ccc(CCOc3ccc(C(F)(F)F)cc3)cc12)C1CC1(F)F (stereo not drawn) [Compound 595, 2,2-difluoro-N-(5-(2-(4-(trifluoromethyl)phenoxy)ethyl)-1H-indol-3-yl)cyclopropane-1-carboxamide]
17 | 200 to 1000 | C[C@]1(C(=O)Nc2c[nH]c3ccc(OCc4ccc(C(F)(F)F)cc4)cc23)C[C@@H](CO)C1 [Compound 417, trans-3-(hydroxymethyl)-1-methyl-N-(5-((4-(trifluoromethyl)benzyl)oxy)-1H-indol-3-yl)cyclobutane-1-carboxamide]
18 | 200 to 1000 | N#C[C@H]1C[C@@H]1C(=O)Nc1c[nH]c2ccc(OCc3ccc(C(F)(F)F)cc3)cc12 [Compound 585, (1S,2S)-2-cyano-N-(5-((4-(trifluoromethyl)benzyl)oxy)-1H-indol-3-yl)cyclopropane-1-carboxamide]
19 | 200 to 1000 | O=C(Nc1c[nH]c2ccc(OCC[C@@H]3C[C@@H]4CN(CC(F)(F)F)C[C@@H]4C3)cc12)C1(C(F)(F)F)CC1 [Compound 366, N-(5-(2-((3aR,5r,6aS)-2-(2,2,2-trifluoroethyl)octahydrocyclopenta[c]pyrrol-5-yl)ethoxy)-1H-indol-3-yl)-1-(trifluoromethyl)cyclopropane-1-carboxamide]
20 | 40 to 200 | COC1CC(C(=O)Nc2c[nH]c3ccc(OCc4ccc(C(F)(F)F)cc4)cc23)C1 (stereo not drawn) [Compound 352, 3-methoxy-N-(5-((4-(trifluoromethyl)benzyl)oxy)-1H-indol-3-yl)cyclobutane-1-carboxamide]
21 | 5000 to 100000 | CC(=O)Nc1c[nH]c2ccc(CC3(c4ccc(C(F)(F)F)cc4)CCOC3)cc12 (stereo not drawn) [Compound 507, N-(5-((3-(4-(trifluoromethyl)phenyl)tetrahydrofuran-3-yl)methyl)-1H-indol-3-yl)acetamide]
22 | 200 to 1000 | CC(=O)Nc1c[nH]c2ccc(CCOc3ccc(C(F)(F)F)cc3)c(F)c12 [Compound 213, N-(4-fluoro-5-(2-(4-(trifluoromethyl)phenoxy)ethyl)-1H-indol-3-yl)acetamide]
23 | 200 to 1000 | cis-3-hydroxy-N-(5-(2-((3aR,5r,6aS)-2-(2,2,2-trifluoroethyl)octahydrocyclopenta[c]pyrrol-5-yl)ethoxy)-1H-indol-3-yl)cyclobutane-1-carboxamide [Compound 344]
24 | 200 to 1000 | COC1CC(C(=O)Nc2c[nH]c3ccc(CCOc4ccc(C(F)(F)F)cc4)cc23)C1 (stereo not drawn) [Compound 297, 3-methoxy-N-(5-(2-(4-(trifluoromethyl)phenoxy)ethyl)-1H-indol-3-yl)cyclobutane-1-carboxamide]
25 | 40 to 200 | O=C(Nc1c[nH]c2ccc(OCCc3ccc(C(F)(F)F)cc3)cc12)C1CN(CC(F)F)C1 [Compound 149, 1-(2,2-difluoroethyl)-N-(5-(4-(trifluoromethyl)phenethoxy)-1H-indol-3-yl)azetidine-3-carboxamide]
26 | 1000 to 5000 | CN1CC(C(=O)Nc2c[nH]c3ccc(CCOc4ccc(C(F)(F)F)cc4)cc23)C1 [Compound 590, 1-methyl-N-(5-(2-(4-(trifluoromethyl)phenoxy)ethyl)-1H-indol-3-yl)azetidine-3-carboxamide]
27 | 200 to 1000 | O=C(Nc1c[nH]c2ccc(OCCc3ccc(C(F)(F)F)cc3)cc12)C1CC1(F)F (stereo not drawn) [Compound 181, 2,2-difluoro-N-(5-(4-(trifluoromethyl)phenethoxy)-1H-indol-3-yl)cyclopropane-1-carboxamide]
